{
  "source": "patent US10001483B2",
  "about": "“Methods for the treatment of Kaposi's sarcoma or KSHV-induced lymphoma using immunomodulatory compounds, and uses of biomarkers” (Celgene Corporation, priority 2015, dated 2018)",
  "key": {"[1]": {"system": "HIV-1", "test": "Plasma HIV viral load by ultrasensitive single copy assay", "format": "in vivo", "description": "Aspirin at 81 mg daily was administered as thromboprophylaxis. Assessments were performed every 4 weeks for lymphocyte numbers, Kaposi sarcoma associated herpesvirus (KSHV/HHV8) viral load (VL) and HIV VL and at 8 weeks for T cell subsets and activation by immunophenotyping of peripheral blood mononuclear cells (PBMC). KSHV VL in PBMC and HIV VL in plasma were assayed by quantitative PCR; an ultrasensitive single copy assay was used for HIV VL. Changes from baseline were evaluated using the Wilcoxon signed rank test with P<0.005 considered significant given multiple comparisons. Differences in changes between the HIV infected and uninfected groups were evaluated using the Wilcoxon rank sum test. Median time of the patients on therapy 7 cycles (range 2-12).\nLaboratory Assays: Lymphocyte subsets were assessed by fluorescent-activated cell sorting using the BlueOcean platform (Beckman Coulter, Carlsbad, Calif.). Plasma HIV-1 […] was evaluated using an ultrasensitive assay whose sensitivity was 1 viral copy per plasma volume. Briefly, a triplex PCR was used using a modification of a previously reported assay with three primers: one spanning the start codon of gag, one in the gag coding region, and one internal control. Samples were tested from 6 mL plasma aliquots, with 12 replicants per sample. KSHV VL in peripheral blood mononuclear cells (PBMC) was assessed by quantitative real-time PCR.\nChanges in immunologic and virologic parameters were evaluated by a Wilcoxon signed rank test. Exact Wilcoxon rank sum tests were used to compare pharmacokinetic parameters at each time point and differences from baseline. All p-values are two-tailed and reported without adjustment for multiple comparisons. HRQL was analyzed using a using a mixed model repeated measures analysis for FAHI and the marginal homogeneity test for KS-specific questions"}, "[2]": {"system": "MHC-1", "test": "Butyrate induced (lytic KSHV activation) MHC-1 down-regulation in BCBL-1 cells, FACS and Western blot", "format": "cell-based", "settings": "pretreatment 24 h before butyrate", "description": "In addition, the effect of the immunomodulatory drugs on KSHV down-regulation of MHC-1 during lytic activation was investigated by FACS analysis after pretreating the cells with Immunomodulatory drugs prior to lytic activation with butyrate.\nFlow Cytometry Analysis and Antibodies: For flow cytometry analysis of MHC-I expression, cells were plated at 400,000 cells/mL and pretreated with immunomodulatory agents as indicated. After twenty-four hours, cells were treated with butyrate at indicated amounts to induce lytic activation and down-regulation of MHC-I. After another twenty-four hours, cells were analyzed on FACS and extracts were prepared as indicated. For flow cytometry analysis, the cells, 1×105 per sample, were incubated with indicated conjugated monoclonal antibodies for 30 min at 4° C. After washing twice with PBS, cells were resuspended in PBS and flow cytometry analysis was performed with a FACSCalibur. FITC-conjugated antibodies to anti-HLA MHC Class I (Sigma-Aldrich) and PE-conjugated antibodies to anti-DR MHC Class II (BioLegend) were used for flow cytometry."}, "[3]": {"system": "KSHV K3 and K5", "test": "K3 and K5 protein expression in BCBL-1 cells after lytic activation, Western blot", "format": "cell-based", "settings": "following lytic activation", "description": "Western Blotting: At the end of an incubation period, cells were lysed and nuclear/cytoplasmic extracts were prepared using the NE-PER nuclear extraction kit (Pierce). Samples were subjected to SDS-PAGE (4 to 12% NuPAGE Tris-Bis) (Invitrogen) and transferred to nitrocellulose. The membrane was blocked with 5% w/v nonfat dry milk in 1×TBST (10 mM Tris-Hcl, […], 150 mM NaCl, and 0.05% Tween 20) overnight at 4° C. Blots were incubated with indicated antibodies such as anti-IRF-7 (Santa Cruz), anti-IRF-4 (Cell Signaling), anti-p21 (Cell Signaling), anti-NF-κB p65 (Cell Signaling), anti-NF-κB phospho-p65 (Cell Signaling), IFN-γRa (Cell Signaling), or anti-CRBN (Sigma-Aldrich), and subjected to the appropriate secondary antibody conjugated to alkaline phosphatase (Promega). Bands were visualized with Western Blue stabilized substrate (Promega). Membranes were scanned and images were processed as described.\nFlow Cytometry Analysis and Antibodies: For flow cytometry analysis of MHC-I expression, cells were plated at 400,000 cells/mL and pretreated with immunomodulatory agents as indicated. After twenty-four hours, cells were treated with butyrate at indicated amounts to induce lytic activation and down-regulation of MHC-I. After another twenty-four hours, cells were analyzed on FACS and extracts were prepared as indicated. […]"}, "[4]": {"system": "MHC-1", "test": "K3/K5 mediated MHC-1 down-regulation in K3 or K5 transfected KSHV-negative BJAB cells", "format": "cell-based", "description": "FIGS. 9A-9E. […] 24 hours after electroporation, FACS analysis was done using half of the cells. […] The remaining cells were subjected to lysis, protein extraction, and western blot. Blots were probed with antibodies to the indicated proteins."}, "[5]": {"settings": "restricted to the 15 HIV positive subjects, paired data for 10-13 patients"}},
  "data": [
    {"smiles": "Nc1cccc2c1C(=O)N(C1CCC(=O)NC1=O)C2=O", "note": "(centres unmarked) [pomalidomide, 4-amino-2-(2,6-dioxopiperidin-3-yl)isoindoline-1,3-dione]", "values": [
      {"measurement": "HIV VL", "setting": "[1]; plasma, ultrasensitive single copy assay", "value": "no significant change"},
      {"measurement": "Plasma HIV VL (copies/mL) Change to End Therapy (Med, range)", "setting": "[1]; [5]", "value": "−0.5", "unit": "copies/mL"},
      {"measurement": "Plasma HIV VL (copies/mL) Change to Week 8 (Med, range)", "setting": "[1]; [5]", "value": "+0.75 copies/mL"},
      {"measurement": "Plasma HIV VL (copies/mL) Change to Week 4 (Med, range)", "setting": "[1]; restricted to the 15 HIV positive subjects, paired data for 10-13 patients, baseline 1.5", "value": "+0.3 copies/mL"},
      {"measurement": "down-regulation of MHC Class I expression upon lytic KSHV activation", "setting": "[2]; FIGS. 7A-7C and FIG. 8", "value": "inhibits MHC-1 down-regulation"},
      {"measurement": "down-regulation of MHC Class I expression upon lytic KSHV activation", "setting": "[2]; FIGS. 7A-7C and FIG. 8, listed as Pomalidomide", "value": "substantially more effective at preventing the down-regulation"},
      {"measurement": "protein expression level of KSHV K3 or K5", "setting": "[3]; FIG. 8", "value": "appears not to prevent K3 and K5 expression"},
      {"measurement": "protein expression level of KSHV K3 or K5", "setting": "[3]; FIG. 8, listed as Pomalidomide", "value": "did not significantly change the protein expression level"},
      {"measurement": "down-regulation of MHC-1 by plasmids encoding K3 or K5", "setting": "[4]; 10 μM for 48 hours before electroporation", "value": "prevented"},
      {"measurement": "prevention of MHC I knockdown, FACS analysis with K5", "setting": "[4]; 10 μM for 48 hours, GFP-positive cells", "value": "not consistently observed"},
      {"measurement": "MHC I knockdown, western blots", "setting": "[4]; 10 μM for 48 hours, K3 or K5 plasmids", "value": "preventing MHC I knockdown"}
    ]}
  ]
}
